Measurements taken from the supplement of paper PMC7214452.

Key:
Experiment in all cases: normalized area under the dose-response curve (viability relative to DMSO control) (fraction); higher = less sensitive (more viable cells)
Details in all cases: exposure time not given
AMO1 (cancer type: MM) = test system: AMO1 (cancer type: MM)
Procedure: (§1)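 25 myeloma and 15 non-Hodgkin lymphoma cell lines were exposed to each of 76 drugs as 7-point log dilutions (0.01 nM–10 µM) in duplicate. Viability was read with CellTiter-Glo and normalised to DMSO (0.1%) and staurosporine (10 µM) plate controls. Normalised AUC was calculated by the trapezoidal method relative to the negative control.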

EJM (cancer type: MM) = test system: EJM (cancer type: MM)
Procedure: as §1

FR4 (cancer type: MM) = test system: FR4 (cancer type: MM)
Procedure: as §1

[1] = test system: Granta-519 (cancer type: Mantle)
Procedure: as §1

[2] = test system: HuT 78 (cancer type: TCL)
Procedure: as §1

JJN3 (cancer type: MM) = test system: JJN3 (cancer type: MM)
Procedure: as §1

[3] = test system: JVM2 (cancer type: Mantle)
Procedure: as §1

[4] = test system: JeKo-1 (cancer type: Mantle)
Procedure: as §1

KMS11 (cancer type: MM) = test system: KMS11 (cancer type: MM)
Procedure: as §1

[5] = test system: KMS12PE (cancer type: MM)
Procedure: as §1

KMS18 (cancer type: MM) = test system: KMS18 (cancer type: MM)
Procedure: as §1

KMS26 (cancer type: MM) = test system: KMS26 (cancer type: MM)
Procedure: as §1

[6] = test system: KMS28BM (cancer type: MM)
Procedure: as §1

[7] = test system: KMS28PE (cancer type: MM)
Procedure: as §1

KMS34 (cancer type: MM) = test system: KMS34 (cancer type: MM)
Procedure: as §1

[8] = test system: Karpas-299 (cancer type: TCL)
Procedure: as §1

L363 (cancer type: MM) = test system: L363 (cancer type: MM)
Procedure: as §1

LP1 (cancer type: MM) = test system: LP1 (cancer type: MM)
Procedure: as §1

MM1.R (cancer type: MM) = test system: MM1.R (cancer type: MM)
Procedure: as §1

MM1.S (cancer type: MM) = test system: MM1.S (cancer type: MM)
Procedure: as §1

[9] = test system: Mino (cancer type: Mantle)
Procedure: as §1

My-La (cancer type: TCL) = test system: My-La (cancer type: TCL)
Procedure: as §1

[10] = test system: NCI-H929 (cancer type: MM)
Procedure: as §1

[11] = test system: OCI-LY1 (cancer type: DLBCL)
Procedure: as §1

[12] = test system: OCI-LY19 (cancer type: DLBCL)
Procedure: as §1

[13] = test system: OCI-LY3 (cancer type: DLBCL)
Procedure: as §1

[14] = test system: OCI-MY5 (cancer type: MM)
Procedure: as §1

[15] = test system: OCI-MY5/CRBN (cancer type: MM)
Procedure: as §1

[16] = test system: OCI-MY5/Vec (cancer type: MM)
Procedure: as §1

[17] = test system: OCI-MY7 (cancer type: MM)
Procedure: as §1

OPM2 (cancer type: MM) = test system: OPM2 (cancer type: MM)
Procedure: as §1

[18] = test system: RPMI 8226 (cancer type: MM)
Procedure: as §1

SKMM2 (cancer type: MM) = test system: SKMM2 (cancer type: MM)
Procedure: as §1

[19] = test system: SR-786 (cancer type: TCL)
Procedure: as §1

[20] = test system: SU-DHL1 (cancer type: TCL)
Procedure: as §1

[21] = test system: SU-DHL2 (cancer type: DLBCL)
Procedure: as §1

[22] = test system: SU-DHL6 (cancer type: DLBCL)
Procedure: as §1

Se-Ax (cancer type: TCL) = test system: Se-Ax (cancer type: TCL)
Procedure: as §1

U266 (cancer type: MM) = test system: U266 (cancer type: MM)
Procedure: as §1

XG2 (cancer type: MM) = test system: XG2 (cancer type: MM)
Procedure: as §1

Compound	normalized area under the dose-response curve (AMO1 (cancer type: MM))	normalized area under the dose-response curve (EJM (cancer type: MM))	normalized area under the dose-response curve (FR4 (cancer type: MM))	normalized area under the dose-response curve [1]	normalized area under the dose-response curve [2]	normalized area under the dose-response curve (JJN3 (cancer type: MM))	normalized area under the dose-response curve [3]	normalized area under the dose-response curve [4]	normalized area under the dose-response curve (KMS11 (cancer type: MM))	normalized area under the dose-response curve [5]	normalized area under the dose-response curve (KMS18 (cancer type: MM))	normalized area under the dose-response curve (KMS26 (cancer type: MM))	normalized area under the dose-response curve [6]	normalized area under the dose-response curve [7]	normalized area under the dose-response curve (KMS34 (cancer type: MM))	normalized area under the dose-response curve [8]	normalized area under the dose-response curve (L363 (cancer type: MM))	normalized area under the dose-response curve (LP1 (cancer type: MM))	normalized area under the dose-response curve (MM1.R (cancer type: MM))	normalized area under the dose-response curve (MM1.S (cancer type: MM))	normalized area under the dose-response curve [9]	normalized area under the dose-response curve (My-La (cancer type: TCL))	normalized area under the dose-response curve [10]	normalized area under the dose-response curve [11]	normalized area under the dose-response curve [12]	normalized area under the dose-response curve [13]	normalized area under the dose-response curve [14]	normalized area under the dose-response curve [15]	normalized area under the dose-response curve [16]	normalized area under the dose-response curve [17]	normalized area under the dose-response curve (OPM2 (cancer type: MM))	normalized area under the dose-response curve [18]	normalized area under the dose-response curve (SKMM2 (cancer type: MM))	normalized area under the dose-response curve [19]	normalized area under the dose-response curve [20]	normalized area under the dose-response curve [21]	normalized area under the dose-response curve [22]	normalized area under the dose-response curve (Se-Ax (cancer type: TCL))	normalized area under the dose-response curve (U266 (cancer type: MM))	normalized area under the dose-response curve (XG2 (cancer type: MM))
CN(C)C/C=C/C(=O)Nc1cc2c(Nc3ccc(F)c(Cl)c3)ncnc2cc1O[C@H]1CCOC1 [Afatinib]	0.562	0.66	0.685	0.69	0.496	0.57	0.497	0.531	0.53	0.53	0.822	0.848	0.682	0.529	0.461	0.636	0.521	0.637	0.49	0.5	0.643	0.74	0.63	0.796	0.739	0.819	0.372	0.548	0.477	0.62	0.692	0.467	0.642	0.709	0.558	0.758	0.811	0.604	0.801	0.496
Cn1ncc(Cl)c1-c1cc(C(=O)N[C@H](CN)Cc2cccc(F)c2)sc1Cl [Afuresertib]	0.414	0.486	0.591	0.821	0.758	0.55	0.652	0.808	0.439	0.49	0.293	0.499	0.363	0.282	0.211	0.765	0.375	0.384	0.2	0.26	0.813	0.784	0.33	0.657	0.739	0.851	0.398	0.742	0.637	0.7	0.369	0.331	0.49	0.713	0.48	0.913	0.816	0.416	0.525	0.436
COc1cc(Nc2ncc3c(n2)-c2ccc(Cl)cc2C(c2c(F)cccc2OC)=NC3)ccc1C(=O)O [Alisertib]	0.7	0.889	0.916	0.709	0.826	0.919	0.706	0.716	0.772	0.94	0.833	0.887	0.913	0.918	0.684	0.816	0.872	0.851	0.85	0.85	0.622	0.851	0.94	0.794	0.853	0.878	0.881	0.85	0.809	0.92	0.957	0.927	0.967	0.802	0.761	0.964	0.946	0.73	0.859	0.69
CC(=O)OC[C@H]1O[C@@H]([S-])[C@H](OC(C)=O)[C@@H](OC(C)=O)[C@@H]1OC(C)=O.CCP(CC)CC.[Au+] [Auranofin]					0.239		0.157			0.33									0.05	0.09			0.08	0.372	0.344	0.553		0.0579	0.0417	0.07					0.139	0.611	0.553	0.247		
Nc1ncn([C@@H]2O[C@H](CO)[C@@H](O)[C@H]2O)c(=O)n1 [Azacitidine]	0.496	0.635	0.427	0.778	0.419	0.645	0.552	0.72	0.545	0.56	0.736	0.757	0.774	0.678	0.64	0.624	0.488	0.766	0.65	0.6	0.807	0.87	0.4	0.508	0.716	0.707	0.564	0.756	0.702	0.6	0.535	0.665	0.767	0.74	0.453	0.673	0.65	0.637	0.679	0.612
O=C1CC[C@H](N2Cc3c(OCc4ccc(CN5CCOCC5)cc4)cccc3C2=O)C(=O)N1 [Iberdomide]					0.913		0.917			0.93									0.91	0.78			0.86	0.968	0.809	0.983		0.913	0.947	0.94					0.996	0.921	0.887	0.953		
CC(C)C[C@H](NC(=O)CNC(=O)c1cc(Cl)ccc1Cl)B(O)O [Ixazomib]				0.129	0.156		0.114	0.104		0.45		0.157			0.306	0.403		0.344	0.05	0.09	0.14	0.355	0.1	0.362	0.303	0.285		0.0319	0.027	0.12				0.355	0.186	0.453	0.855	0.146		0.0819
Cc1[nH]c(/C=C2\C(=O)Nc3ccc(F)cc32)c(C)c1C(=O)NCCN1CCCC1 [Toceranib]				0.898	0.756		0.702	0.831		0.79		0.906			0.667	0.757		0.796	0.83	0.82	0.898	0.993	0.88	1.06	0.894	0.902		0.884	0.967	0.86				0.818	0.561	0.959	0.894	0.728		0.723
